Measured values taken from patent US12570606B2, “Myeloperoxidase imaging agents” (The General Hospital Corporation, priority 2016, dated 2026).
Read-outs that look alike come from different tables or passages of the source.

Tests used:
[1] = Pharmacokinetics and biodistribution after i.v. injection; assay type: in vivo, wild-type C57BL/6 mice; conditions: for half-life: C57BL/6, mouse, blood, iv, i.v. tail vein
Procedure: The pharmacokinetic and biodistribution of Compound 9 was evaluated in wild-type C57BL/6 mice. After systemic intravenous (i.v.) injection via the tail vein, blood samples were collected to determine clearance rate of Compound 9 from the blood. The major organs of the mouse were harvested and the radioactivity was measured.

[2] = Blood brain barrier assay, PET brain uptake; assay type: in vivo, Female C57Bl/6J mice
Procedure: Female C57Bl/6J mice were injected intravenously with either 3′-deoxy-3′-^18F-fluorothymidine (FLT) or Compound 9 (300-600 μCi). The mice were imaged 2 hours after the PET tracers were injected.

[3] = molecular target: T1, MPO (Mus musculus, UniProt P11247); assay: CFA paw inflammation PET imaging and treatment by MPO inhibitor PF-1355; assay type: in vivo; set-up: from tissue; host or cells: inflamed forepaw of living mice (CFA); conditions: forepaw, 24 h after CFA emulsion, scan 2 h after tracer
T1 sequence (P11247 139-718): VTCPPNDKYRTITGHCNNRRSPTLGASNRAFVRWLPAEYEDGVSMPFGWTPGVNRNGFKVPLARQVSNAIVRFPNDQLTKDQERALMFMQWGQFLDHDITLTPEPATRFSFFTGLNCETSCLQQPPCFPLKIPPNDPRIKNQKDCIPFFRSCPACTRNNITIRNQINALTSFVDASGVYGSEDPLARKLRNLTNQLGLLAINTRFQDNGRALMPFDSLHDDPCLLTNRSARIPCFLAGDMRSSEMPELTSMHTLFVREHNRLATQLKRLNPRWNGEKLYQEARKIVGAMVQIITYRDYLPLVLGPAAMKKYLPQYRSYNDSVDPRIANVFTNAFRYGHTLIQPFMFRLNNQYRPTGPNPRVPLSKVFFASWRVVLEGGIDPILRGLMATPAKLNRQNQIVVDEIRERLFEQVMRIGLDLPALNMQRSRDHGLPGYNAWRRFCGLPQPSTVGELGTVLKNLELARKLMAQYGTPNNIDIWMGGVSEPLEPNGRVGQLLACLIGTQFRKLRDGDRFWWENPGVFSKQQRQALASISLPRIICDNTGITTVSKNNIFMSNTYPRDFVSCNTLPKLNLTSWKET
Procedure: Each pair contained one treated and one untreated, number of pairs, n=3. The 1/1 emulsion of CFA/PBS (40 μL) was injected subcutaneously on the dorsal side of one forepaw under isoflurane anesthesia, and PBS (40 μL) was injected on the other forepaw as control. After 1 h, the treated group was given PF-1355 (50 mg/kg) by gavage, then treated every 6 h for another 3 times, and the control group was treated with vehicle (10 mL/kg) accordingly. After 24 h, 300-600 uCi of Compound 9 was injected intravenously. After another 2 h, each pair of the mice was scanned side by side.
After validating the efficacy of the MPO Compound 9 in matrigel experiments, the specificity of the agent in inflammation was investigated. Complete Freund's Adjuvant (CFA) or its emulsion can cause inflammation when injected subcutaneously to the animal. The CFA emulsion was injected to one dorsal side of the forepaw of the mouse and the other side was injected with PBS. After 24 h, Compound 9 was injected intravenously and scanned 2 h after injection. […] To further verify the specificity of the MPO Compound 9, the mice were treated with MPO inhibitor PF-1355 1 h after CFA emulsion injection and continuously every 6 h afterwards for 4 times before injecting the Compound 9. The control group was treated with vehicle after CFA injection. Then each pair of the mice from treated and untreated groups were scanned.

In the case of `O=C(Cc1c[nH]c2ccc(O)cc12)NC(Cc1c[nH]c2ccc(O)cc12)C(=O)NCCOCCOCC[18F]` (stereo not shown) [Compound 9], the half-life ([1]; two-phase exponential decay model, read-out: Blood short (fast) half-life) is reported as 0.26 min, the half-life ([1]; two-phase exponential decay model, read-out: Blood slow half-life) is reported as 4.66 min and the “Biodistribution of radioactivity in organs” value ([1]; major organs harvested after i.v. injection) is reported as “the liver and kidney showed the highest radioactivity, followed by bone and lymph”. The “Share of clearance accounted for by the fast half-life” value ([1]; two-phase exponential decay model) was 94.7%, the “Uptake in the brain (SUV, FIG. 12)” value ([2]; 300-600 μCi i.v., imaged 2 hours after injection) was “higher uptake in the brain compared to FLT” and the “Crossing of the blood brain barrier” value ([2]; intact BBB) was “can cross intact BBB”. For the same compound, the “PET signal of CFA side versus vehicle (PBS) injected side” value [3] was 4 fold.
